Results published in PMC5479551, “Development of a range of fluorescent reagentless biosensors for ATP, based on malonyl-coenzyme A synthetase” (PLoS ONE, 2017).
“And” between values parts separate entries of the source, which are not always exact repeats. Equal values may be shown once.

How the values were obtained:
Parent (Rho-MatB) [1] = biological target: T1, Parent (Rho-MatB) (Rhodopseudomonas palustris, UniProt Q6ND88, C106A/K488A/Q457C/R286C); test: Competition fluorescence titration of ATP into 0.5 µM parent Rho-MatB at fixed AMP (500 or 1000 µM) in 50 mM Hepes pH 7.0, 100 mM NaCl, 10 mM MgCl2, 0.3 mg/ml BSA, 20°C.; assay type: binding; details: read-out: KAMP (ATP titrated at fixed AMP)
T1 construct: N-terminal His6-tag, expressed in E. coli; two tetramethylrhodamines (5-IATR) on introduced cysteines
Procedure: Fig 6 Competition titrations between ATP and AMP binding to Rho-MatB variants. Titrations were under conditions as Fig 2, using 0.5 μM of the Rho-MatB variant. (A) Titration of AMP into Rho-MatB complex with a fixed concentration of ATP: 7 μM for the parent Rho-MatB (“wt”) and S170A, 50 μM for T303A and 150 μM for T167A. One representative data set is shown. Fluorescence changes were fit to A0[ATP]/(K' +[ATP]), where the apparent dissociation constant for ATP, K' = KATP(1 + [AMP]/KAMP). KATP and KAMP are the actual dissociation constants for ATP and AMP and A0 is the total fluorescence change at that ATP concentration. Taking the previously obtained values for KATP, the values of KAMP were 169 ± 23 μM for the parent Rho-MatB, 225 ± 15 μM for S170A, and 300 ± 12 μM for T167A. […] Data were fitted to the equation above, giving KAMP as 233 ± 11 μM using 500 μM AMP and 255 ± 16 μM at 1000 μM AMP.
Doing the competition titration the other way round, fixing AMP, caused a shift in apparent dissociation constant of ATP. […] Alternatively, fitting the data as described in Fig 6 gave values for the AMP dissociation constant that were similar to those in Fig 6A. The amplitude of the signal changes only little with AMP, but the range of ATP concentrations over the maximal signal change, is increased as AMP increases

H207A Rho-MatB = biological target: T2, H207A Rho-MatB (Rhodopseudomonas palustris, UniProt Q6ND88, C106A/H207A/K488A/Q457C/R286C); test: Survey fluorescence titration of tetramethylrhodamine-labelled MatB variants with ATP in 50 mM Tris.HCl pH 7.5, 150 mM NaCl, 10 mM MgCl2, 0.3 mg/ml BSA, 20°C, without full optimization of labelling and purification.; assay type: binding
T2 construct: His6-tag, Rho-MatB background, two tetramethylrhodamines (5-IATR)
Procedure: (§1) Data from titrations to measure nucleotide binding were corrected for dilution and analyzed with a quadratic binding curve using Grafit software: F=Fmin+(Fmax−Fmin)×(Kd+L+P−(Kd+L+P)^2−4×P×L)/2×P where P and L are the total concentrations of protein and ligand, respectively, Kd is the dissociation constant, and Fmin and Fmax are the fluorescence intensities of the free and ligand- bound protein, respectively.
(§2) The labeled proteins were then tested for a fluorescence change upon ATP binding in the presence of Mg^2+ (Table 1). For variants showing a significant fluorescence change, the affinity for ATP was determined by titration (Table 1).

M302A Rho-MatB = biological target: T3, M302A Rho-MatB (Rhodopseudomonas palustris, UniProt Q6ND88, C106A/K488A/M302A/Q457C/R286C); test: as above; assay type: binding
T3 construct: His6-tag, Rho-MatB background, two tetramethylrhodamines (5-IATR)
Procedure: as §1, §2

Parent (Rho-MatB) [2] = biological target: T1, Parent (Rho-MatB); test: as above; assay type: binding
Procedure: as §1, §2

Q490A Rho-MatB = biological target: T4, Q490A Rho-MatB (Rhodopseudomonas palustris, UniProt Q6ND88, C106A/K488A/Q457C/Q490A/R286C); test: as above; assay type: binding
T4 construct: His6-tag, Rho-MatB background, two tetramethylrhodamines (5-IATR)
Procedure: as §1, §2

R169A Rho-MatB = biological target: T5, R169A Rho-MatB (Rhodopseudomonas palustris, UniProt Q6ND88, C106A/K488A/Q457C/R169A/R286C); test: as above; assay type: binding
T5 construct: His6-tag, Rho-MatB background, two tetramethylrhodamines (5-IATR)
Procedure: as §1, §2

R299A Rho-MatB = biological target: T6, R299A Rho-MatB (Rhodopseudomonas palustris, UniProt Q6ND88, C106A/K488A/Q457C/R286C/R299A); test: as above; assay type: binding
T6 construct: His6-tag, Rho-MatB background, two tetramethylrhodamines (5-IATR)
Procedure: as §1, §2

S164A Rho-MatB = biological target: T7, S164A Rho-MatB (Rhodopseudomonas palustris, UniProt Q6ND88, C106A/K488A/Q457C/R286C/S164A); test: as above; assay type: binding
T7 construct: His6-tag, Rho-MatB background, two tetramethylrhodamines (5-IATR)
Procedure: as §1, §2

S170A Rho-MatB [3] = biological target: T8, S170A Rho-MatB (Rhodopseudomonas palustris, UniProt Q6ND88, C106A/K488A/Q457C/R286C/S170A); test: as above; assay type: binding
T8 construct: His6-tag, Rho-MatB background, two tetramethylrhodamines (5-IATR)
Procedure: as §1, §2

T163A Rho-MatB = biological target: T9, T163A Rho-MatB (Rhodopseudomonas palustris, UniProt Q6ND88, C106A/K488A/Q457C/R286C/T163A); test: as above; assay type: binding
T9 construct: His6-tag, Rho-MatB background, two tetramethylrhodamines (5-IATR)
Procedure: as §1, §2

T166A Rho-MatB = biological target: T10, T166A Rho-MatB (Rhodopseudomonas palustris, UniProt Q6ND88, C106A/K488A/Q457C/R286C/T166A); test: as above; assay type: binding
T10 construct: His6-tag, Rho-MatB background, two tetramethylrhodamines (5-IATR)
Procedure: as §1, §2

T167A Rho-MatB [4] = biological target: T11, T167A Rho-MatB (Rhodopseudomonas palustris, UniProt Q6ND88, C106A/K488A/Q457C/R286C/T167A); test: as above; assay type: binding
T11 construct: His6-tag, Rho-MatB background, two tetramethylrhodamines (5-IATR)
Procedure: as §1, §2

T167S Rho-MatB = biological target: T12, T167S Rho-MatB (Rhodopseudomonas palustris, UniProt Q6ND88, C106A/K488A/Q457C/R286C/T167S); test: as above; assay type: binding
T12 construct: His6-tag, Rho-MatB background, two tetramethylrhodamines (5-IATR)
Procedure: as §1, §2

T208A Rho-MatB = biological target: T13, T208A Rho-MatB (Rhodopseudomonas palustris, UniProt Q6ND88, C106A/K488A/Q457C/R286C/T208A); test: as above; assay type: binding
T13 construct: His6-tag, Rho-MatB background, two tetramethylrhodamines (5-IATR)
Procedure: as §1, §2

T303A Rho-MatB [5] = biological target: T14, T303A Rho-MatB (Rhodopseudomonas palustris, UniProt Q6ND88, C106A/K488A/Q457C/R286C/T303A); test: as above; assay type: binding
T14 construct: His6-tag, Rho-MatB background, two tetramethylrhodamines (5-IATR)
Procedure: as §1, §2

T303S Rho-MatB = biological target: T15, T303S Rho-MatB (Rhodopseudomonas palustris, UniProt Q6ND88, C106A/K488A/Q457C/R286C/T303S); test: as above; assay type: binding
T15 construct: His6-tag, Rho-MatB background, two tetramethylrhodamines (5-IATR)
Procedure: as §1, §2

Y300A Rho-MatB = biological target: T16, Y300A Rho-MatB (Rhodopseudomonas palustris, UniProt Q6ND88, C106A/K488A/Q457C/R286C/Y300A); test: as above; assay type: binding
T16 construct: His6-tag, Rho-MatB background, two tetramethylrhodamines (5-IATR)
Procedure: as §1, §2

Parent (Rho-MatB) [6] = biological target: T1, Parent (Rho-MatB); test: Fluorescence titration (excitation 553 nm, emission 571 nm) of 0.5 µM fully purified Rho-MatB with ATP in 50 mM Hepes pH 7.0, 100 mM NaCl, 10 mM MgCl2, 0.3 mg/ml BSA, 20°C, quadratic binding fit.
Excerpt: as §1
(§3) Fig 2 Nucleotide affinity for variants of Rho-MatB. Titration of ATP (circles) and ADP (triangles) to (A) 0.5 µM Rho-MatB T167A, (B) 0.5 μM Rho-MatB T303A; (C) 0.5 μM Rho-MatB S170A. Measurements are shown for one representative experiment and were in 50 mM Hepes pH 7.0, 100 mM NaCl, 10 mM MgCl2, 0.3 mg ml^-1 bovine serum albumin at 20°C. Excitation was at 553 nm, emission at 571 nm. The dissociation constants and fluorescence ratios were obtained using a quadratic binding equation (see Methods) and are listed in Table 2. The drop lines are to indicate the dissociation constants. Data are normalized to the intensity in the absence of nucleotide.
(§4) The affinity for ATP and ADP was determined by measuring the fluorescence at different concentrations of the nucleotide (Fig 2A and 2B). Both variants show similar fluorescent changes with ATP compared to the parent Rho-MatB, but the dissociation constants (Kd) are much higher (Table 2). In contrast, the affinity of ADP was much less affected by the mutations, remaining very weak (Table 2). The change in ATP affinity presumably reflects the importance of hydrogen-bonding interactions with the triphosphate, decreased by mutating to alanine.

S170A Rho-MatB [7] = biological target: T8, S170A Rho-MatB; test: as above
Excerpt: as §1, §3, §4

T167A Rho-MatB [8] = biological target: T11, T167A Rho-MatB; test: as above
Excerpt: as §1, §3, §4

T303A Rho-MatB [9] = biological target: T14, T303A Rho-MatB; test: as above
Excerpt: as §1, §3, §4

T1 sequence (Q6ND88 entry or part of it C106A/R286C/Q457C/K488A): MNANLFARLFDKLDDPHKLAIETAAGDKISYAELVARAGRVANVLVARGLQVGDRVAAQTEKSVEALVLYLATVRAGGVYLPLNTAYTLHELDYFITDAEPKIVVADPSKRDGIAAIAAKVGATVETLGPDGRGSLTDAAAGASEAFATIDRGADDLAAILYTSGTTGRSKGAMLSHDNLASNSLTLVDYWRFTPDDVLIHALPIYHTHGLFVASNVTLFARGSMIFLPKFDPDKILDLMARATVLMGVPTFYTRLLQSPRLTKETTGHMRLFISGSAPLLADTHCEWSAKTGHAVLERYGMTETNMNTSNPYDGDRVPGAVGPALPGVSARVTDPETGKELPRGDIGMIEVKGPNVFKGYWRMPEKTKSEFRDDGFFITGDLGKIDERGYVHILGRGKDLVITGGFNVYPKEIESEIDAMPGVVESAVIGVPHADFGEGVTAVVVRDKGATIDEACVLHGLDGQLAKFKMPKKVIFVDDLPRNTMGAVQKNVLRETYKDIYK
T8 sequence (Q6ND88 entry or part of it C106A/S170A/R286C/Q457C/K488A): as the sequence (Q6ND88 entry or part of it C106A/R286C/Q457C/K488A) above, with S170A counted along it
T11 sequence (Q6ND88 entry or part of it C106A/T167A/R286C/Q457C/K488A): as the sequence (Q6ND88 entry or part of it C106A/R286C/Q457C/K488A) above, with T167A counted along it
T14 sequence (Q6ND88 entry or part of it C106A/R286C/T303A/Q457C/K488A): as the sequence (Q6ND88 entry or part of it C106A/R286C/Q457C/K488A) above, with T303A counted along it
T15 sequence (Q6ND88 entry or part of it C106A/R286C/T303S/Q457C/K488A): as the sequence (Q6ND88 entry or part of it C106A/R286C/Q457C/K488A) above, with T303S counted along it
T7 sequence (Q6ND88 entry or part of it C106A/S164A/R286C/Q457C/K488A): as the sequence (Q6ND88 entry or part of it C106A/R286C/Q457C/K488A) above, with S164A counted along it
T9 sequence (Q6ND88 entry or part of it C106A/T163A/R286C/Q457C/K488A): as the sequence (Q6ND88 entry or part of it C106A/R286C/Q457C/K488A) above, with T163A counted along it
T2 sequence (Q6ND88 entry or part of it C106A/H207A/R286C/Q457C/K488A): as the sequence (Q6ND88 entry or part of it C106A/R286C/Q457C/K488A) above, with H207A counted along it
T5 sequence (Q6ND88 entry or part of it C106A/R169A/R286C/Q457C/K488A): as the sequence (Q6ND88 entry or part of it C106A/R286C/Q457C/K488A) above, with R169A counted along it
T4 sequence (Q6ND88 entry or part of it C106A/R286C/Q457C/K488A/Q490A): as the sequence (Q6ND88 entry or part of it C106A/R286C/Q457C/K488A) above, with Q490A counted along it
T10 sequence (Q6ND88 entry or part of it C106A/T166A/R286C/Q457C/K488A): as the sequence (Q6ND88 entry or part of it C106A/R286C/Q457C/K488A) above, with T166A counted along it
T16 sequence (Q6ND88 entry or part of it C106A/R286C/Y300A/Q457C/K488A): as the sequence (Q6ND88 entry or part of it C106A/R286C/Q457C/K488A) above, with Y300A counted along it
T6 sequence (Q6ND88 entry or part of it C106A/R286C/R299A/Q457C/K488A): as the sequence (Q6ND88 entry or part of it C106A/R286C/Q457C/K488A) above, with R299A counted along it
T12 sequence (Q6ND88 entry or part of it C106A/T167S/R286C/Q457C/K488A): as the sequence (Q6ND88 entry or part of it C106A/R286C/Q457C/K488A) above, with T167S counted along it
T13 sequence (Q6ND88 entry or part of it C106A/T208A/R286C/Q457C/K488A): as the sequence (Q6ND88 entry or part of it C106A/R286C/Q457C/K488A) above, with T208A counted along it
T3 sequence (Q6ND88 entry or part of it C106A/R286C/M302A/Q457C/K488A): as the sequence (Q6ND88 entry or part of it C106A/R286C/Q457C/K488A) above, with M302A counted along it

SMILES: Nc1ncnc2c1ncn2[C@@H]1O[C@H](COP(=O)(O)O)[C@@H](O)[C@H]1O [AMP, adenosine 5'-monophosphate]
- Kd (Parent (Rho-MatB) [1]): 233 µM and 255 µM

SMILES: Nc1ncnc2c1ncn2[C@@H]1O[C@H](COP(=O)(O)OP(=O)(O)OP(=O)(O)O)[C@@H](O)[C@H]1O [ATP, adenosine 5'-triphosphate]
- Kd (H207A Rho-MatB): 224 ± 18 µM
- Kd (M302A Rho-MatB): 50 ± 5 µM
- Kd (Parent (Rho-MatB) [2]): 8.8 ± 0.3 µM
- Kd (Q490A Rho-MatB): 66 ± 3 µM
- Kd (R169A Rho-MatB): 33 ± 1 µM
- Kd (R299A Rho-MatB): 2.4 ± 0.1 µM
- Kd (S164A Rho-MatB): 17.4 ± 0.4 µM
- Kd (S170A Rho-MatB [3]): 4 ± 0.1 µM
- Kd (T163A Rho-MatB): 297 ± 27 µM
- Kd (T166A Rho-MatB): 156 ± 7 µM
- Kd (T167A Rho-MatB [4]): 149 ± 7 µM
- Kd (T167S Rho-MatB): 52 ± 1 µM
- Kd (T208A Rho-MatB): 52 ± 5 µM
- Kd (T303A Rho-MatB [5]): 42 ± 1 µM
- Kd (T303S Rho-MatB): 56 ± 3 µM
- Kd (Y300A Rho-MatB): 11.1 ± 0.5 µM
- Kd (Parent (Rho-MatB) [6]): 6.4 ± 0.6 µM
- Kd (S170A Rho-MatB [7]): 3.8 ± 0.1 µM
- Kd (T167A Rho-MatB [8]): 123 ± 4 µM
- Kd (T303A Rho-MatB [9]): 42 ± 2 µM
